# The source made the active and inactive calls. No cut-off for these calls is given here.
# Tested on: not listed separately
# Test: (§1) Induction of mitochondrial uncoupled respiration in rat L6 myoblasts assessed as increase in oxygen consumption rate at 50 uM measured by Agilent Seahorse XF analyzer
# Type: functional
row,SMILES,Activity [%]
1,Cn1c(C(F)(F)F)nc2nc(Nc3cc(C(F)(F)F)cc(C(F)(F)F)c3)c(Nc3cc(C(F)(F)F)cc(C(F)(F)F)c3)nc21,>300
2,Cc1ccc(Nc2nc3[nH]c(C(F)(F)F)nc3nc2Nc2ccccc2F)cc1,50
3,Fc1ccccc1Nc1nc2nc(C(F)(F)F)[nH]c2nc1Nc1ccccc1F,150
4,FC(F)(F)c1cc(Nc2nc3nc(C(F)(F)F)[nH]c3nc2Nc2cc(C(F)(F)F)cc(C(F)(F)F)c2)cc(C(F)(F)F)c1,100
5,Fc1ccccc1Nc1nc2nc(C(F)(F)F)[nH]c2nc1Nc1ccccc1,50
6,Fc1cccc(Nc2nc3[nH]c(C(F)(F)F)nc3nc2Nc2ccccc2F)c1,150
7,Cn1c(C(F)(F)F)nc2nc(Nc3cc(C(F)(F)F)ccc3F)c(Nc3cc(C(F)(F)F)ccc3F)nc21,>200
8,Fc1ccccc1Nc1nc2nc(C(F)(F)F)[nH]c2nc1NC1CCCCC1,125

# Tested on: L6
# Test: as §1
# Type: functional
row,SMILES,Activity
1,Cc1ccc(Nc2nc3nc(C(F)(F)F)[nH]c3nc2Nc2ccc(C)cc2)cc1,Active
2,FC(F)(F)c1nc2nc(Nc3ccccc3)c(Nc3ccccc3)nc2[nH]1,Active

# Tested on: not listed separately
# Test: Induction of mitochondrial uncoupled respiration in rat L6 myoblasts assessed as increase in oxygen consumption rate at 10 uM measured by Agilent Seahorse XF analyzer
# Type: functional
row,SMILES,Activity [%]
1,Cn1c(C(F)(F)F)nc2nc(Nc3cc(C(F)(F)F)cc(C(F)(F)F)c3)c(Nc3cc(C(F)(F)F)cc(C(F)(F)F)c3)nc21,100
2,Fc1cccc(Nc2nc3nc(C(F)(F)F)[nH]c3nc2Nc2cccc(F)c2F)c1F,>150
3,Fc1ccccc1Nc1nc2nc(C(F)(F)F)[nH]c2nc1Nc1ccccc1F,50
4,Fc1c(Nc2nc3nc(C(F)(F)F)[nH]c3nc2Nc2cccc(C(F)(F)F)c2F)cccc1C(F)(F)F,>150
5,Fc1ccc(C(F)(F)F)cc1Nc1nc2nc(C(F)(F)F)[nH]c2nc1Nc1cc(C(F)(F)F)ccc1F,100
6,Fc1cccc(Nc2nc3[nH]c(C(F)(F)F)nc3nc2Nc2ccccc2F)c1,100
7,FC(F)(F)c1nc2nc(Nc3ccccc3C(F)(F)F)c(Nc3ccccc3C(F)(F)F)nc2[nH]1,>150

# Tested on: not listed separately
# Test: Induction of mitochondrial uncoupled respiration in rat L6 myoblasts assessed as increase in oxygen consumption rate measured by Agilent Seahorse XF analyzer
# Type: functional, cell-based
row,SMILES,EC50 [µM]
1,Oc1nc2nonc2nc1Nc1ccc(OC(F)(F)F)cc1,4.3

# Reference: ChEMBL document CHEMBL5107991, “Conversion of oxadiazolo[3,4-b]pyrazines to imidazo[4,5-b]pyrazines via a tandem reduction-cyclization sequence generates new mitochondrial uncouplers” (Bioorg Med Chem Lett, 2022)
